Literature values in patent US20090098217A1, “COMPOSITIONS AND METHODS FOR PROMOTING THICKER HAIR” (priority 2007, published 2009).
Like-named read-outs stand apart in the source and are kept apart here.

What was measured:
[1] = system: 5-alpha-reductase; details: in vitro
[2] = system: 5-alpha-reductase; details: 5 or 10 mg of zinc injected in rat prostate

[Zn] [zinc]
conversion of testosterone to DHT ([1]; low concentrations of zinc): enhance conversion of testosterone to DHT
conversion of testosterone to DHT ([1]; mM concentrations of zinc): inhibited it
5-alpha-reductase activity [2]: significantly reduced 5-alpha-reductase activity
